The values that follow come from article PMC6934599, “Phenoxyethyl Piperidine/Morpholine Derivatives as PAS and CAS Inhibitors of Cholinesterases: Insights for Future Drug Design” (Scientific Reports, 2019).

“Also recorded” adds a separate entry of the source. Read-outs that look alike come from different tables or passages of the source.

Assay [1] concerns the target T1, AChE (E.C.3.1.1.7, from electric eel) (Electrophorus electricus, UniProt O42275).
T1 construct: purchased Sigma-Aldrich and Fluka
Kind of assay: biochemical. In kind it is biochemical. To be noted: for cholinesterase inhibitory activity against eeAChE: in words. As to the method: (§1) All the synthesized compounds were screened for their cholinesterase activity by Ellman’s spectrophotometric method with a slight modification. […] In brief, enzymatic reactions were accomplished in 96-well plates with total volume of 270 µL. Each well contained 0.1 M phosphate buffer (pH 7.4), 0.08 U/mL AChE or 0.05 U/mL BuChE and 0.3 mM of DTNB. In order to considering the influence of DMSO percentage on the enzymatic activity of AChE, different concentrations of the test sample were prepared in final concentrations of 0.2% DMSO. Then contents were incubated for 15 min at room temperature. The reaction was started with the addition of 20 µL of 0.45 mM substrate (ATCI/BTCI) into premixed enzyme/buffer/inhibitor mixture and monitored by using plate reader Synergy HT, Biotek, USA at 412 nm. The activity in the absence of sample compounds was considered as a blank. The percentage inhibition was calculated from (blank – test sample)/blank × 100.

Assay [2] deals with T2, BuChE (E.C.3.1.1.8, from equine serum) (Equus caballus, UniProt P81908).
T2 construct: BuChE (E.C.3.1.1.8, from equine serum); purchased Sigma-Aldrich and Fluka; host or cells: equine serum
The assay is described as follows: biochemical. In kind it is biochemical. The following applies: for cholinesterase inhibitory activity against eqBuChE: in words; for inhibitory activity for eqBuChE: up to 100 µM concentrations; for IC50: modified Ellman's method, read-out: eqBuChE IC50. As to the method:
as §1

The target of the next assay is T3, eeAChE (Electrophorus electricus, UniProt O42275).
T3 construct: purchased Sigma-Aldrich and Fluka
Kind of assay: Kinetic study of eeAChE inhibition (Lineweaver-Burk). In kind it is biochemical. As to the method: Two fixed concentrations of the inhibitor (IC50, 2IC50) were chosen and for each concentration, the initial velocity (V) of the substrate ATCI/BTCI hydrolysis was measured at different concentrations in the range of 0–1.5 mM. […] Furthermore, Ki value was obtained by extrapolating the slopes of Lineweaver-Burk plots against inhibitor concentrations (Fig. 3B).
(§2) To determine the mechanisms of action of 5c and 7c, a series of experiments were performed at different concentrations of the substrate ATCI/BTCI. The inhibitor concentrations were (IC50, 2IC50). Substrates ATCI/BTCI concentrations were 0, 0.13, 0.3, 0.45, 0.675, 1.01 and 1.51 mM in all kinetic studies. Pre-incubation and measurement time were the same as reported in the perivous assay protocol. Kinetic characterization analysis was done spectrometrically at 412 nm.

For the next assay, the target named is T4, eqBuChE (Equus caballus, UniProt P81908).
T4 construct: BuChE (E.C.3.1.1.8, from equine serum); purchased Sigma-Aldrich and Fluka; host or cells: equine serum
The assay is described as follows: Kinetic study of eqBuChE inhibition (Lineweaver-Burk). It is filed as biochemical. As to the method:
as §2

Another assay concerns Aβ peptide. To be noted: cited from earlier work.
Another assay concerns AChE. To be noted: cited from earlier work.
The mark [3] stands for this setting: modified Ellman's method, read-out: eeAChE IC50.

T2 sequence (P81908 whole entry): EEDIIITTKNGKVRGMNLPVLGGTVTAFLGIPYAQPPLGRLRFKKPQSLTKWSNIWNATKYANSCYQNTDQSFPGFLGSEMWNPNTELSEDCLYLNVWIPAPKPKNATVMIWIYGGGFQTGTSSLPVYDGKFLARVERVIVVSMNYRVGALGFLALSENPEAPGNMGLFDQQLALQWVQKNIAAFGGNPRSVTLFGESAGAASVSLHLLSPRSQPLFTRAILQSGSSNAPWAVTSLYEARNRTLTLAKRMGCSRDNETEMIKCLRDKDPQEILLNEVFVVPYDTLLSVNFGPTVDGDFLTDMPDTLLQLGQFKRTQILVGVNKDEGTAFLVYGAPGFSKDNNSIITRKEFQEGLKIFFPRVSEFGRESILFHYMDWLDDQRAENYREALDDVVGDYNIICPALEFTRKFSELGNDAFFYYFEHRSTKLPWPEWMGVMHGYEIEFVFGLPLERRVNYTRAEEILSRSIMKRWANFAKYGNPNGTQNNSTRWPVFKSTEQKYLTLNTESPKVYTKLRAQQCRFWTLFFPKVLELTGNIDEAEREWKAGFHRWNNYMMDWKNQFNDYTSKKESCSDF
T1 sequence (O42275 24-633): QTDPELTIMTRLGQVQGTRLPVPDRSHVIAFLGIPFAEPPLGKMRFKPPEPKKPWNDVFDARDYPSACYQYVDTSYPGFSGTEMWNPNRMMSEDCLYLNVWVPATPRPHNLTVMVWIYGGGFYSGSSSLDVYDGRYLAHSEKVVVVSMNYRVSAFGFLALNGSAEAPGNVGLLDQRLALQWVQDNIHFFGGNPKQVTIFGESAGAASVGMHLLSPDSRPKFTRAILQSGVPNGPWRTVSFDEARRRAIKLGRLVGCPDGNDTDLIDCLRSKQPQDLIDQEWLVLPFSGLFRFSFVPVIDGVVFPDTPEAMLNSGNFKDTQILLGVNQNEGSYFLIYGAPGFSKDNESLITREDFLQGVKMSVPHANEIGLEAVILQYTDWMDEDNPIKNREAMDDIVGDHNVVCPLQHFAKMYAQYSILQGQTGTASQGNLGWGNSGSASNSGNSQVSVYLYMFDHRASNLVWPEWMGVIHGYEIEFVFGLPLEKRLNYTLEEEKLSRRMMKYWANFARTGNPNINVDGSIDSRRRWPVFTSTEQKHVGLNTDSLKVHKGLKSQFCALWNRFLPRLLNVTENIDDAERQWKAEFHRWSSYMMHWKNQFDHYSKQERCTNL
T4 sequence (P81908 whole entry): as the sequence (P81908 whole entry) above
T3 sequence (O42275 24-633): as the sequence (O42275 24-633) above

For the compound `O=Cc1ccc(OCCN2CCOCC2)cc1` [3b, 4-(2-morpholinoethoxy)benzaldehyde], the “cholinesterase inhibitory activity against eeAChE” value in assay [1] is on record as “did not show any cholinesterase inhibitory activity”. In addition, the “cholinesterase inhibitory activity against eqBuChE” value in assay [2] was “did not show any cholinesterase inhibitory activity”.

`N#CC(C#N)=Cc1ccc(OCCN2CCCCC2)cc1` [5a]: the IC50 in assay [1] was determined as 2800 ± 50 nM. Further, the “inhibitory activity for eqBuChE” value in assay [2] is “no inhibitory activity”.

Take `N#CC(C#N)=Cc1ccc(OCCN2CCOCC2)cc1` [5b]: in assay [1], the “cholinesterase inhibitory activity against eeAChE” value is listed as “did not show any cholinesterase inhibitory activity”. Besides, the “cholinesterase inhibitory activity against eqBuChE” value in assay [2] is “did not show any cholinesterase inhibitory activity”.

Consider `COC(=O)/C(C#N)=C/c1ccc(OCCN2CCCCC2)cc1` [5c], for which, in assay [1] (eeAChE vs eqBuChE IC50), the “selectivity for AChE than for BuChE” value is listed as “more than 200 fold”. In assay [1] (setting [3]), the IC50 was determined as 500 nM. Moreover, in assay [2], the “inhibitory activity for eqBuChE” value was “no inhibitory activity was found; also recorded: no inhibition”. For the same compound, on eeAChE (Lineweaver-Burk plots, substrate ATCI), the “type of inhibition of eeAChE” value is reported as “mixed-type inhibition”. The Ki at eeAChE (slopes of Lineweaver-Burk plots against inhibitor concentrations) amounted to 53 nM.

In the case of `N#CC1=C(N)OC2=C(C(=O)CCC2)C1c1ccc(OCCN2CCCCC2)cc1` (centres unmarked) [7a, 2-Amino-5-oxo-4-(4-(2-(piperidin-1-yl)ethoxy)phenyl)-5,6,7,8-tetrahydro-4H-chromene-3-carbonitrile], the IC50 amounted to 20400 ± 9300 nM in assay [1] (setting [3]) and 8100 ± 500 nM in assay [2].

Take `CC1(C)CC(=O)C2=C(C1)OC(N)=C(C#N)C2c1ccc(OCCN2CCCCC2)cc1` (centres unmarked) [7c, 2-Amino-7,7-dimethyl-5-oxo-4-(4-(2-(piperidin-1-yl)ethoxy)phenyl)-5,6,7,8-tetrahydro-4H-chromene-3-carbonitrile]: the figures for the IC50 in assay [1] (setting [3]) and in assay [2] were 35600 ± 3700 nM and 2500 ± 600 nM, respectively. Moreover, the “type of inhibition of eqBuChE” value on eqBuChE (Lineweaver-Burk plot, substrate BTCI) is “mixed-type of inhibition”. Also, at eqBuChE (plot of slopes against inhibitor concentration), affinity was put at a Ki of 156 nM.

As to `Cc1cc2c(c(=O)o1)C(c1ccc(OCCN3CCCCC3)cc1)C(C#N)=C(N)O2` (centres unmarked) [7e, 2-Amino-7-methyl-5-oxo-4-(4-(2-(piperidin-1-yl)ethoxy)phenyl)-4H,5H-pyrano[4,3-b]pyran-3-carbonitrile], the IC50 in assay [1] (setting [3]) was determined as 2100 ± 50 nM. For the same compound, the “inhibitory activity for eqBuChE” value in assay [2] is reported as “no inhibitory activity”.

`Cc1cc2c(c(=O)o1)C(c1ccc(OCCN3CCOCC3)cc1)C(C#N)=C(N)O2` (centres unmarked) [7f, 2-Amino-7-methyl-4-(4-(2-morpholinoethoxy)phenyl)-5-oxo-4H,5H-pyrano[4,3-b]pyran-3-carbonitrile]: the “cholinesterase inhibitory activity against eeAChE” value in assay [1] is recorded as “did not show any cholinesterase inhibitory activity”. The “cholinesterase inhibitory activity against eqBuChE” value in assay [2] was “did not show any cholinesterase inhibitory activity”.

On to `COc1cc2c(cc1OC)C(=O)C(CC1CCN(Cc3ccccc3)CC1)C2` (centres unmarked) [Donepezil, donepezil], for which the “inhibition of the aggregation of Aβ peptide” value with Aβ peptide (at 100 µM, as stated in introduction section) is recorded as 22%.

As for `CC[N+](C)(CC)CCC[n+]1c(-c2ccccc2)c2cc(N)ccc2c2ccc(N)cc21` [Propidium, propidium], the half-maximal inhibitory concentration (IC50) in the assay on AChE was […]. In the assay on Aβ peptide, the “effect on Aβ aggregation” value is “reduces the aggregation”.

In the case of `CC[N+](C)(C)c1cccc(O)c1` [edrophonium], in the assay with AChE, the IC50 is 5360 nM. Further, the “effect on Aβ aggregation” value in the assay with Aβ peptide is given as “fails to slow down the Aβ aggregation”.
